Laboratory results reported in publication PMC5760531, “Action Potential Recording and Pro-arrhythmia Risk Analysis in Human Ventricular Trabeculae” (Frontiers in Physiology, 2018).

Columns and labels:
[1] = human free (unbound) effective therapeutic plasma concentration used to calculate multiples; cited from earlier work
[2] = tested on: human ventricular trabeculae; assay: Action potential recording and pro-arrhythmic score analysis in human ventricular trabeculae (hVT); conditions: 1Hz;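 also: sharp microelectrode action potential recordings at 37°C in Tyrode-perfused trabeculae, 4 cumulative concentrations each applied 31 min, values averaged over last 30 APs, vehicle 0.1% DMSO as control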

COc1cc(N)c(Cl)cc1C(=O)NC1CCN(CCCOc2ccc(F)cc2)CC1OC (stereo not drawn) [CISAPRIDE, Cisapride]
Free ETPC [1]: 0.003 µM
AMAX ([2]; 0.1-FOLD free ETPC (0.003µM)): 111
AMAX percentage change compared to vehicle control ([2]; 0.1-FOLD free ETPC (0.003µM)): -2%
APD30 ([2]; 0.1-FOLD free ETPC (0.003µM)): 153
APD30 percentage change compared to vehicle control ([2]; 0.1-FOLD free ETPC (0.003µM)): -14%
APD50 ([2]; 0.1-FOLD free ETPC (0.003µM)): 205
APD50 percentage change compared to vehicle control ([2]; 0.1-FOLD free ETPC (0.003µM)): -13%
APD90 ([2]; 0.1-FOLD free ETPC (0.003µM)): 281
APD90 percentage change compared to vehicle control ([2]; 0.1-FOLD free ETPC (0.003µM)): -10%
Alternans ([2]; 0.1-FOLD free ETPC (0.003µM)): 0.75
Alternans percentage change compared to vehicle control ([2]; 0.1-FOLD free ETPC (0.003µM)): 14%
Beat Escape ([2]; 0.1-FOLD free ETPC (0.003µM)): 0
Beat Escape percentage change compared to vehicle control ([2]; 0.1-FOLD free ETPC (0.003µM)): 0%
EADs ([2]; 0.1-FOLD free ETPC (0.003µM)): 0
EADs percentage change compared to vehicle control ([2]; 0.1-FOLD free ETPC (0.003µM)): 0%
ERP ([2]; 0.1-FOLD free ETPC (0.003µM)): 0.45
ERP percentage change compared to vehicle control ([2]; 0.1-FOLD free ETPC (0.003µM)): 3%
Max Dispersion ([2]; 0.1-FOLD free ETPC (0.003µM)): 3.28
Max Dispersion percentage change compared to vehicle control ([2]; 0.1-FOLD free ETPC (0.003µM)): 11%
RMP ([2]; 0.1-FOLD free ETPC (0.003µM)): -94
RMP percentage change compared to vehicle control ([2]; 0.1-FOLD free ETPC (0.003µM)): -1%
Refractoriness Escape ([2]; 0.1-FOLD free ETPC (0.003µM)): 0
Refractoriness Escape percentage change compared to vehicle control ([2]; 0.1-FOLD free ETPC (0.003µM)): 0%
STV ([2]; 0.1-FOLD free ETPC (0.003µM)): 0.54
STV percentage change compared to vehicle control ([2]; 0.1-FOLD free ETPC (0.003µM)): 22%
Triangulation ([2]; 0.1-FOLD free ETPC (0.003µM)): 127
Triangulation percentage change compared to vehicle control ([2]; 0.1-FOLD free ETPC (0.003µM)): -3%
AMAX ([2]; 1-FOLD free ETPC (0.003µM)): 111
AMAX percentage change compared to vehicle control ([2]; 1-FOLD free ETPC (0.003µM)): -2%
APD30 ([2]; 1-FOLD free ETPC (0.003µM)): 161
APD30 percentage change compared to vehicle control ([2]; 1-FOLD free ETPC (0.003µM)): -11%
APD50 ([2]; 1-FOLD free ETPC (0.003µM)): 213
APD50 percentage change compared to vehicle control ([2]; 1-FOLD free ETPC (0.003µM)): -10%
APD90 ([2]; 1-FOLD free ETPC (0.003µM)): 286
APD90 percentage change compared to vehicle control ([2]; 1-FOLD free ETPC (0.003µM)): -9%
Alternans ([2]; 1-FOLD free ETPC (0.003µM)): 0.76
Alternans percentage change compared to vehicle control ([2]; 1-FOLD free ETPC (0.003µM)): 16%
Beat Escape ([2]; 1-FOLD free ETPC (0.003µM)): 0
Beat Escape percentage change compared to vehicle control ([2]; 1-FOLD free ETPC (0.003µM)): 0%
EADs ([2]; 1-FOLD free ETPC (0.003µM)): 0
EADs percentage change compared to vehicle control ([2]; 1-FOLD free ETPC (0.003µM)): 0%
ERP ([2]; 1-FOLD free ETPC (0.003µM)): 0.44
ERP percentage change compared to vehicle control ([2]; 1-FOLD free ETPC (0.003µM)): 1%
Max Dispersion ([2]; 1-FOLD free ETPC (0.003µM)): 3.20
Max Dispersion percentage change compared to vehicle control ([2]; 1-FOLD free ETPC (0.003µM)): 8%
RMP ([2]; 1-FOLD free ETPC (0.003µM)): -96
RMP percentage change compared to vehicle control ([2]; 1-FOLD free ETPC (0.003µM)): 0%
Refractoriness Escape ([2]; 1-FOLD free ETPC (0.003µM)): 0
Refractoriness Escape percentage change compared to vehicle control ([2]; 1-FOLD free ETPC (0.003µM)): 0%
STV ([2]; 1-FOLD free ETPC (0.003µM)): 0.57
STV percentage change compared to vehicle control ([2]; 1-FOLD free ETPC (0.003µM)): 42%
Triangulation ([2]; 1-FOLD free ETPC (0.003µM)): 124
Triangulation percentage change compared to vehicle control ([2]; 1-FOLD free ETPC (0.003µM)): -5%
AMAX ([2]; 10-FOLD free ETPC (0.003µM)): 111
AMAX percentage change compared to vehicle control ([2]; 10-FOLD free ETPC (0.003µM)): -1%
APD30 ([2]; 10-FOLD free ETPC (0.003µM)): 148
APD30 percentage change compared to vehicle control ([2]; 10-FOLD free ETPC (0.003µM)): -17%
APD50 ([2]; 10-FOLD free ETPC (0.003µM)): 206
APD50 percentage change compared to vehicle control ([2]; 10-FOLD free ETPC (0.003µM)): -13%
APD90 ([2]; 10-FOLD free ETPC (0.003µM)): 285
APD90 percentage change compared to vehicle control ([2]; 10-FOLD free ETPC (0.003µM)): -8%
Alternans ([2]; 10-FOLD free ETPC (0.003µM)): 0.37
Alternans percentage change compared to vehicle control ([2]; 10-FOLD free ETPC (0.003µM)): -44%
Beat Escape ([2]; 10-FOLD free ETPC (0.003µM)): 0
Beat Escape percentage change compared to vehicle control ([2]; 10-FOLD free ETPC (0.003µM)): 0%
EADs ([2]; 10-FOLD free ETPC (0.003µM)): 0
EADs percentage change compared to vehicle control ([2]; 10-FOLD free ETPC (0.003µM)): 0%
ERP ([2]; 10-FOLD free ETPC (0.003µM)): 0.48
ERP percentage change compared to vehicle control ([2]; 10-FOLD free ETPC (0.003µM)): 11%
Max Dispersion ([2]; 10-FOLD free ETPC (0.003µM)): 2.73
Max Dispersion percentage change compared to vehicle control ([2]; 10-FOLD free ETPC (0.003µM)): -8%
RMP ([2]; 10-FOLD free ETPC (0.003µM)): -99
RMP percentage change compared to vehicle control ([2]; 10-FOLD free ETPC (0.003µM)): 4%
Refractoriness Escape ([2]; 10-FOLD free ETPC (0.003µM)): 0
Refractoriness Escape percentage change compared to vehicle control ([2]; 10-FOLD free ETPC (0.003µM)): 0%
STV ([2]; 10-FOLD free ETPC (0.003µM)): 0.27
STV percentage change compared to vehicle control ([2]; 10-FOLD free ETPC (0.003µM)): -31%
Triangulation ([2]; 10-FOLD free ETPC (0.003µM)): 137
Triangulation percentage change compared to vehicle control ([2]; 10-FOLD free ETPC (0.003µM)): 4%
AMAX ([2]; 100-FOLD free ETPC (0.003µM)): 116
AMAX percentage change compared to vehicle control ([2]; 100-FOLD free ETPC (0.003µM)): 3%
APD30 ([2]; 100-FOLD free ETPC (0.003µM)): 158
APD30 percentage change compared to vehicle control ([2]; 100-FOLD free ETPC (0.003µM)): -12%
APD50 ([2]; 100-FOLD free ETPC (0.003µM)): 224
APD50 percentage change compared to vehicle control ([2]; 100-FOLD free ETPC (0.003µM)): -6%
APD90 ([2]; 100-FOLD free ETPC (0.003µM)): 312
APD90 percentage change compared to vehicle control ([2]; 100-FOLD free ETPC (0.003µM)): 0%
Alternans ([2]; 100-FOLD free ETPC (0.003µM)): 0.54
Alternans percentage change compared to vehicle control ([2]; 100-FOLD free ETPC (0.003µM)): -17%
Beat Escape ([2]; 100-FOLD free ETPC (0.003µM)): 0
Beat Escape percentage change compared to vehicle control ([2]; 100-FOLD free ETPC (0.003µM)): 0%
EADs ([2]; 100-FOLD free ETPC (0.003µM)): 0
EADs percentage change compared to vehicle control ([2]; 100-FOLD free ETPC (0.003µM)): 0%
ERP ([2]; 100-FOLD free ETPC (0.003µM)): 0.49
ERP percentage change compared to vehicle control ([2]; 100-FOLD free ETPC (0.003µM)): 14%
Max Dispersion ([2]; 100-FOLD free ETPC (0.003µM)): 2.75
Max Dispersion percentage change compared to vehicle control ([2]; 100-FOLD free ETPC (0.003µM)): -7%
RMP ([2]; 100-FOLD free ETPC (0.003µM)): -102
RMP percentage change compared to vehicle control ([2]; 100-FOLD free ETPC (0.003µM)): 7%
Refractoriness Escape ([2]; 100-FOLD free ETPC (0.003µM)): 0
Refractoriness Escape percentage change compared to vehicle control ([2]; 100-FOLD free ETPC (0.003µM)): 0%
STV ([2]; 100-FOLD free ETPC (0.003µM)): 0.37
